Assay results from PubChem BioAssay (NCI).
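Cells were grown in 96-well plates and exposed to each compound for 48 hours at five concentrations; endpoints were interpolated linearly between bracketing concentrations, or set to the highest concentration if not reached. TGI: concentration producing complete growth inhibition.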

Assays:
Experiment in all cases: NCI anticancer screen, dose series, 48 h
786-0 renal = test system: 786-0 renal
A498 renal = test system: A498 renal
A549 NSCLC = test system: A549 NSCLC
ACHN renal = test system: ACHN renal
BT-549 breast = test system: BT-549 breast
CAKI-1 renal = test system: CAKI-1 renal
CCRF-CEM leukemia = test system: CCRF-CEM leukemia
COLO 205 colon = test system: COLO 205 colon
DU-145 prostate = test system: DU-145 prostate
EKVX NSCLC = test system: EKVX NSCLC
HCC-2998 colon = test system: HCC-2998 colon
HCT-116 colon = test system: HCT-116 colon
HCT-15 colon = test system: HCT-15 colon
HL-60(TB) leukemia = test system: HL-60(TB) leukemia
HOP-62 NSCLC = test system: HOP-62 NSCLC
HOP-92 NSCLC = test system: HOP-92 NSCLC
HS 578T breast = test system: HS 578T breast
HT29 colon = test system: HT29 colon
IGROV1 ovarian = test system: IGROV1 ovarian
K-562 leukemia = test system: K-562 leukemia
KM12 colon = test system: KM12 colon
LOX IMVI melanoma = test system: LOX IMVI melanoma
M14 melanoma = test system: M14 melanoma
MALME-3M melanoma = test system: MALME-3M melanoma
MCF7 breast = test system: MCF7 breast
MDA-MB-231 breast = test system: MDA-MB-231 breast
MDA-MB-435 = test system: MDA-MB-435
MDA-N = test system: MDA-N
MOLT-4 leukemia = test system: MOLT-4 leukemia
NCI-H226 lung = test system: NCI-H226 lung
NCI-H23 lung = test system: NCI-H23 lung
NCI-H460 lung = test system: NCI-H460 lung
NCI-H522 lung = test system: NCI-H522 lung
NCI/ADR-RES ovarian = test system: NCI/ADR-RES ovarian
OVCAR-3 ovarian = test system: OVCAR-3 ovarian
OVCAR-4 ovarian = test system: OVCAR-4 ovarian
OVCAR-5 ovarian = test system: OVCAR-5 ovarian
OVCAR-8 ovarian = test system: OVCAR-8 ovarian
PC-3 prostate = test system: PC-3 prostate
RPMI-8226 leukemia = test system: RPMI-8226 leukemia
RXF 393 renal = test system: RXF 393 renal
SF-268 CNS = test system: SF-268 CNS
SF-295 CNS = test system: SF-295 CNS
SF-539 CNS = test system: SF-539 CNS
SK-MEL-2 melanoma = test system: SK-MEL-2 melanoma
SK-MEL-28 melanoma = test system: SK-MEL-28 melanoma
SK-MEL-5 melanoma = test system: SK-MEL-5 melanoma
SK-OV-3 ovarian = test system: SK-OV-3 ovarian
SN12C renal = test system: SN12C renal
SNB-19 CNS = test system: SNB-19 CNS
SNB-75 CNS = test system: SNB-75 CNS
SR leukemia = test system: SR leukemia
SW-620 colon = test system: SW-620 colon
T-47D breast = test system: T-47D breast
TK-10 renal = test system: TK-10 renal
U251 CNS = test system: U251 CNS
UACC-257 melanoma = test system: UACC-257 melanoma
UACC-62 melanoma = test system: UACC-62 melanoma
UO-31 renal = test system: UO-31 renal

`COC(=O)c1oc([N+](=O)[O-])c(Cl)c1Cl` was tested, and the TGI (786-0 renal) was 16.4 µM, the TGI (A498 renal) was 23 µM and the TGI (A549 NSCLC) was 37.7 µM. It also gave a TGI (ACHN renal) of 15.6 µM, a TGI (BT-549 breast) of 14.8 µM and a TGI (CAKI-1 renal) of 7.4 µM. For the same compound, the TGI (CCRF-CEM leukemia) was 7.35 µM, the TGI (COLO 205 colon) was 8.61 µM and the TGI (DU-145 prostate) was 32.5 µM. For the same compound, the TGI (EKVX NSCLC) was 36.8 µM, the TGI (HCC-2998 colon) was 35 µM and the TGI (HCT-116 colon) was 12.9 µM. The TGI (HCT-15 colon) was 18.2 µM, the TGI (HL-60(TB) leukemia) was 3.24 µM and the TGI (HOP-62 NSCLC) was 17 µM. It also gave a TGI (HOP-92 NSCLC) of 39.3 µM, a TGI (HS 578T breast) of 29.3 µM and a TGI (HT29 colon) of 41.4 µM. For the same compound, the TGI (IGROV1 ovarian) was 14.8 µM, the TGI (K-562 leukemia) was 6.48 µM and the TGI (KM12 colon) was 14.5 µM. For the same compound, the TGI (LOX IMVI melanoma) was 13.7 µM, the TGI (M14 melanoma) was 13.8 µM and the TGI (MALME-3M melanoma) was 14.3 µM. The TGI (MCF7 breast) was 6.27 µM, the TGI (MDA-MB-231 breast) was 14 µM and the TGI (MDA-MB-435) was 14.6 µM. The TGI (MDA-N) was 14.9 µM, the TGI (MOLT-4 leukemia) was 4.93 µM and the TGI (NCI-H226 lung) was 42.9 µM. It also gave a TGI (NCI-H23 lung) of 17.4 µM, a TGI (NCI-H460 lung) of 34.6 µM and a TGI (NCI-H522 lung) of 3.33 µM. For the same compound, the TGI (NCI/ADR-RES ovarian) was 36.5 µM, the TGI (OVCAR-3 ovarian) was 11.4 µM and the TGI (OVCAR-4 ovarian) was 17.4 µM. It also gave a TGI (OVCAR-5 ovarian) of 14.8 µM, a TGI (OVCAR-8 ovarian) of 30.4 µM and a TGI (PC-3 prostate) of 15.1 µM. For the same compound, the TGI (RPMI-8226 leukemia) was 15.8 µM, the TGI (RXF 393 renal) was 28 µM and the TGI (SF-268 CNS) was 17.5 µM. For the same compound, the TGI (SF-295 CNS) was 24.7 µM, the TGI (SF-539 CNS) was 14.4 µM and the TGI (SK-MEL-2 melanoma) was 31.6 µM. It also gave a TGI (SK-MEL-28 melanoma) of 15.8 µM, a TGI (SK-MEL-5 melanoma) of 17.7 µM and a TGI (SK-OV-3 ovarian) of 33.2 µM. For the same compound, the TGI (SN12C renal) was 14.2 µM, the TGI (SNB-19 CNS) was 35.4 µM and the TGI (SNB-75 CNS) was 20.8 µM. For the same compound, the TGI (SR leukemia) was 4.89 µM, the TGI (SW-620 colon) was 10 µM and the TGI (T-47D breast) was 13.1 µM. For the same compound, the TGI (TK-10 renal) was 14 µM, the TGI (U251 CNS) was 15.5 µM and the TGI (UACC-257 melanoma) was 15.2 µM. It also gave a TGI (UACC-62 melanoma) of 15.7 µM and a TGI (UO-31 renal) of 14.5 µM.

With `C=C1CC2(CC(c3ccccc3OC)OC(c3ccccc3OC)C2)OC1=O` (stereo not drawn) the TGI (786-0 renal) was 3.01 µM, the TGI (A498 renal) was 12.1 µM and the TGI (A549 NSCLC) was 11.2 µM. It also gave a TGI (ACHN renal) of 5.41 µM, a TGI (BT-549 breast) of 3.12 µM and a TGI (CAKI-1 renal) of 7.13 µM. It also gave a TGI (CCRF-CEM leukemia) of 4.47 µM, a TGI (COLO 205 colon) of 4.06 µM and a TGI (DU-145 prostate) of 20.2 µM. The TGI (EKVX NSCLC) was 27.7 µM, the TGI (HCC-2998 colon) was 5.92 µM and the TGI (HCT-116 colon) was 3.3 µM. It also gave a TGI (HCT-15 colon) of 4.5 µM, a TGI (HL-60(TB) leukemia) of 3.51 µM and a TGI (HOP-62 NSCLC) of 26.8 µM. For the same compound, the TGI (HOP-92 NSCLC) was 3.09 µM, the TGI (HS 578T breast) was 4.9 µM and the TGI (HT29 colon) was 4.32 µM. The TGI (IGROV1 ovarian) was 3.37 µM, the TGI (K-562 leukemia) was 5.32 µM and the TGI (KM12 colon) was 6.65 µM. It also gave a TGI (LOX IMVI melanoma) of 2.98 µM, a TGI (M14 melanoma) of 3.35 µM and a TGI (MALME-3M melanoma) of 3.31 µM. The TGI (MCF7 breast) was 3.32 µM, the TGI (MDA-MB-231 breast) was 3.45 µM and the TGI (MDA-MB-435) was 3.56 µM. It also gave a TGI (MDA-N) of 3.44 µM, a TGI (MOLT-4 leukemia) of 5.52 µM and a TGI (NCI-H226 lung) of 19.4 µM. For the same compound, the TGI (NCI-H23 lung) was 4.62 µM, the TGI (NCI-H460 lung) was 17.7 µM and the TGI (NCI-H522 lung) was 2.98 µM. It also gave a TGI (NCI/ADR-RES ovarian) of 7.73 µM, a TGI (OVCAR-3 ovarian) of 3.7 µM and a TGI (OVCAR-4 ovarian) of 11 µM. The TGI (OVCAR-5 ovarian) was 18.6 µM, the TGI (OVCAR-8 ovarian) was 3.56 µM and the TGI (PC-3 prostate) was 4.33 µM. It also gave a TGI (RPMI-8226 leukemia) of 1.45 µM, a TGI (RXF 393 renal) of 3.31 µM and a TGI (SF-268 CNS) of 6.41 µM. The TGI (SF-295 CNS) was 14.4 µM, the TGI (SF-539 CNS) was 4.95 µM and the TGI (SK-MEL-2 melanoma) was 3.45 µM. The TGI (SK-MEL-28 melanoma) was 2.17 µM, the TGI (SK-MEL-5 melanoma) was 7.05 µM and the TGI (SK-OV-3 ovarian) was 25.5 µM. It also gave a TGI (SN12C renal) of 4.05 µM, a TGI (SNB-19 CNS) of 14 µM and a TGI (SNB-75 CNS) of 9.09 µM. For the same compound, the TGI (SR leukemia) was 4.92 µM, the TGI (SW-620 colon) was 4.03 µM and the TGI (T-47D breast) was 3.4 µM. The TGI (TK-10 renal) was 4.31 µM, the TGI (U251 CNS) was 13.6 µM and the TGI (UACC-257 melanoma) was 4.23 µM. It also gave a TGI (UACC-62 melanoma) of 4.26 µM and a TGI (UO-31 renal) of 2.85 µM.
